Source: patent EP3199156A1, “USE OF GLYCINE TRANSPORTER 1 ANTAGONISTS AS CENTRAL NERVOUS ANALGESICS” (Heinrich Heine Universität Düsseldorf, priority 2016, dated 2017)
Entries after “also recorded” stand apart in the source; their conditions may differ.

Columns and labels:
C57BL/6-Maus = assay: Mechanical allodynia (von Frey filament, withdrawal threshold) after chronic constriction injury (CCI), mouse; assay type: in vivo
Mäusen = conditions: in vivo
Procedure: (§1) Zum Beweis der Effektivität der Bitopertin-Applikation zur Behandlung neuropathischer Schmerzen wurde eine operative Ligatur des linken N. ischiadicus (Chronic Constriction Injury; CCI) der Wistar Ratte sowie C57BL/6-Maus induziert. Am Tag 10-12 nach CCI erhielten 2 Gruppen der Ratten randomisiert und verblindet eine einmalige orale Dosierungen von Bitopertin (0,3; 1 mg/kg), während die Kontrollgruppen Vehikel erhielten. Mechanische Allodynie wurde mittels eines halbautomatischen Frey Filaments (Ugo Basile) vor und 10-12 Tage nach CCI, sowie 1, 2, 4, 8 und 24 h nach Applikation von Bitopertin bzw. Vehikel überprüft. Zusätzlich wurde die Wirkung von Bitopertin 10 Tage nach CCI in Mäusen bei kontinuierlicher Langzeitapplikation mittels subkutan implantierter, osmotischer Mini-Infusionspumpen (2 mg/kg/Tag) über 27 Tage untersucht. Neuromotorische Wirkungen von Bitopertin in Mäusen wurden im Open-Field-Test 1 h nach Injektion bzw. bei kontinuierlicher Applikation nach 12 Tagen analysiert. Statistik: Alle Daten sind dargestellt als Mittelwerte ± Standardfehler; ANOVA und Bonferroni post hoc Test; Signifikanzniveau p<0,05.

Wistar Ratte = assay: Mechanical allodynia (von Frey filament) after chronic constriction injury (CCI) of the left sciatic nerve, rat; assay type: in vivo; conditions: rats, day 10-12 after CCI
Procedure: as §1
In Figur 3 ist der Effekt des GlyT1-Inhibitors Bitopertin auf die mechanische Allodynie bei Nagern mit Neuropathie nach CCI dargestellt. Abbildung (A) zeigt den Effekt des GlyT1-Inhibitors Bitopertin auf die einmalige orale Applikation bei Ratten 0,3 mg/kg; n=9-11. […]

## C[C@H](Oc1ccc(S(C)(=O)=O)cc1C(=O)N1CCN(c2ncc(C(F)(F)F)cc2F)CC1)C(F)(F)F [Bitopertin]
C57BL/6-Maus; mice after CCI, continuous subcutaneous administration 2 mg/kg/Tag by osmotic mini-pump over 27 days, effect from 7 days after start until end of therapy, Figur 3 C, 2 mg/kg
  Schmerzempfindlichkeit der neuropathischen Extremität (mechanische Allodynie): verminderten Schmerzempfindlichkeit der neuropathischen Extremität; also recorded: signifikanten Verminderung von mechanischer Allodynie
C57BL/6-Maus; mice, intraperitoneal 2 mg/kg versus Kochsalzlösung 0,9%, Figur 1
  Rückzugsschwellenwerte in Antwort auf eine mechanische Stimulation der neuropathischen Extremität: deutliche Anhebung der gemessenen Rückzugsschwellenwerte
Mäusen
  unerwünschte neuromotorische Wirkungen: nicht zu unerwünschten neuromotorischen Wirkungen
Mäusen; 2 mg/kg
  Aktivität (Open-field Test): keine Veränderungen der Aktivität
Mäusen; sc, 2 mg/kg
  Wegstrecken und Aufenthaltsdauern (Open-Field-Test): keine Unterschiede in Wegstrecken und Aufenthaltsdauern
Wistar Ratte; single oral dose 0,3 mg/kg, effect two and four hours after administration, Figur 3 A
  durch CCI induzierte mechanische Allodynie: Reduktion der durch CCI induzierten mechanischen Allodynie; also recorded: signifikanten Verminderung von mechanischer Allodynie
Wistar Ratte; single oral dose 1 mg/kg, compared with 0,3 mg/kg, Figur 3 B
  durch CCI induzierte mechanische Allodynie: vergleichbar ausprägten Effekten; also recorded: signifikanten Verminderung von mechanischer Allodynie
